Measured values reported in patent publication US20190231666A1, “ANTI-DANDRUFF COMPOSITION” (Conopco, Inc., d/b/a UNILEVER, priority 2016, published 2019).

Key:
[1] = 25° C.; cited from earlier work
[2] = tested on: MCF7 cells; settings: 13 μM myricetin vs DMSO vehicle control, FIGS. 2A and 2B; cited from earlier work
[3] = tested on: normal human epidermal keratinocytes (HEKa cells); assay: IL-8 release from keratinocytes stimulated with IL-17, IL-22 and TNFα; assay type: cell-based; settings: 16 hrs
Protocol: To test the foregoing hypothesis, the inventors devised an in vitro model for the inflammatory conditions prevalent in the skin of subjects with dandruff. The model involves in vitro tissue culture of normal human epidermal keratinocytes (HEKa cells). The cells were exposed to a combination of IL-17, TNFα and IL-22 to stimulate an inflammatory-type response, which response was measured by production of IL-8 by the keratinocytes and also by analysis of their general gene expression profile. Adult proliferating human epidermal karatinocytes (HEKa) (from Thermo Fisher Scientific) used at low passage (p3 or lower). Cells were cultured in keratinocyte maintenance medium KGM Gold (Lonza Group) containing all components of the bullet kit plus 70 μM calcium. For the assay, cells were plated in KGM Gold with all components of the bullet kit except hydrocortisone and gentamycin, supplemented with 70 μM calcium. […] After 16 hrs the cell culture medium was removed and the amount of IL-8 cytokine released from the keratinocyte cells was quantified using a DuoSet IL-8 ELISA kit (R&D Systems Ltd). The keratinocyte cells were lysed in RIPA buffer and the total amount of protein in each sample quantified using a Pierce BCA protein assay kit (Thermofisher Ltd). […] All treatments were run in triplicate and a mean and standard deviation value calculated, the results being illustrated in FIG. 3.

In the case of O=c1c(O)c(-c2cc(O)c(O)c(O)c2)oc2cc(O)cc(O)c12 [Myricetin, myricetin], the solubility in water [1] is given as “about 55 mg/L”, the “effect on gene expression changes observed in dandruff scalp skin relative to healthy scalp skin” value [2] is given as “reverse some of the gene expression changes” and the “inflammatory response to the cytokines (IL-8 release)” value ([3]; 6.5 μg/ml myricetin, IL-17 200 ng/ml, IL-22 200 ng/ml, TNFa 10 ng/ml, p=0.0001) is given as “marked inhibition”. For the same molecule, the “production of IL-8 (inflammatory response)” value ([3]; HEKa cells, IL-17, TNFα and IL-22 stimulation, FIG. 3) was “significant reduction”.
